Key:
[1] = biological target: T1, RNF43 (Homo sapiens, UniProt Q68DV7); assay: 3H-fenfluramine binding to proteins expressed on reverse-transfected HEK293 cell arrays (phosphorimaging); settings: tritium labeled fenfluramine, 1 or 5 micromolar in confirmation; HEK293 cells; FIG. 1
T1 construct: arrays of expression vectors, encoding full-length human plasma membrane and tethered secreted proteins; expressed in transfected cells; host or cells: HEK293
T1 sequence (Q68DV7 24-783): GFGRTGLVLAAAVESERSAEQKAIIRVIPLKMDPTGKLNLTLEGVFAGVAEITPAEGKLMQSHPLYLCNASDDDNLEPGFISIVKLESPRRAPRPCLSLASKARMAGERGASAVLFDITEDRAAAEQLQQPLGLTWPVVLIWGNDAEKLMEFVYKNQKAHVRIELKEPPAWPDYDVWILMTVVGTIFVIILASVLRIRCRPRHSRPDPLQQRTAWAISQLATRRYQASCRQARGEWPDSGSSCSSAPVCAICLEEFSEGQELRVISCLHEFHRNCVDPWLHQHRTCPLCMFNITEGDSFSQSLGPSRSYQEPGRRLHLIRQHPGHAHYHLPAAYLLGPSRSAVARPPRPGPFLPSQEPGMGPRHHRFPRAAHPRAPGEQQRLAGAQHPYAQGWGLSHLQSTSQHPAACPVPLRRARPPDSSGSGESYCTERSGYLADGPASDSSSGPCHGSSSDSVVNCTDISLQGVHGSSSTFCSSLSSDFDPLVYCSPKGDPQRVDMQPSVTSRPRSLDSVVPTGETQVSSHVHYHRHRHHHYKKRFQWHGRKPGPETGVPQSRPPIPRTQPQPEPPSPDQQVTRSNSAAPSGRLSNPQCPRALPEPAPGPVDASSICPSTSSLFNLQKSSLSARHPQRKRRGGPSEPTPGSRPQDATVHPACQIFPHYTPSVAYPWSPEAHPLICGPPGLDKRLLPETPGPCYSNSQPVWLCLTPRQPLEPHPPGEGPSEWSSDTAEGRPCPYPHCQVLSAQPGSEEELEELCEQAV
Method: (§1) Briefly, arrays of expression vectors, encoding full-length human plasma membrane and tethered secreted proteins, were spotted onto coated slides, then HEK293 cells were grown over the top of the spots and became reverse-transfected resulting in cell surface expression of each respective protein at distinct slide locations. Tritium labeled fenfluramine was applied and specific binding analyzed and confirmed using a phosphorimaging technique. […] Confirmation was achieved by repeating the study with vectors encoding RNF43 and sigma-1 receptor proteins spotted onto slides, upon which HEK293 cells were reverse-transfected. Identical slides were treated before or after cell fixation with 1 micromolar or 5 micromolar 3H-fenfluramine, 20 nanomolar 3H-naloxone, or no compound (n=2 slides per treatment).

[2] = biological target: T2, sigma-1 receptor (Homo sapiens, UniProt Q99720); assay: as above; settings: tritium labeled fenfluramine, 1 or 5 micromolar in confirmation; HEK293 cells
T2 construct: arrays of expression vectors, encoding full-length human plasma membrane and tethered secreted proteins; expressed in transfected cells; host or cells: HEK293
Method: as §1

[3] = system: SCN1a+/− (Dravet) mice; assay: DMBP (degraded myelin basic protein) immunostaining score of myelin debris in brain sections, murine model of Dravet syndrome; format: in vivo, mouse; settings: for DMBP Avg Score, Ctx / DMBP Avg Score, Hipp / DMBP Avg Score, Hipp + Ctx: Het mice, s.c. once daily P7 to P35-P37, FFA 15 mg/kg, diazepam 10 mg/kg; for DMBP Avg Score, Ctx: cortex; for DMBP Avg Score, Ctx / DMBP Avg Score, Hipp: scale 0-5; for DMBP Avg Score, Hipp: hippocampus, p = 0.00015 Het FFA vs Het vehicle; for DMBP Avg Score, Hipp + Ctx: sum of hippocampus and cortex, maximum 10, p = 0.01 Het FFA vs Het vehicle; for effect on myelin debris (D-MBP) score vs vehicle (saline): hippocampus and cortex of P35-P37 SCN1a+/− mice, 2-tail unequal variance t-test, FIG. 2
Excerpt: (§2) Epilepsy is increasingly recognized as a disease of white matter pathology and damage, see Hatton, S. N. et al [Epilepsy Currents 2021 21:27-29]. To test whether fenfluramine reduced pathology and damage to myelin, a mouse model of Dravet syndrome was used. […] Heterozygous Dravet animals used in the studies reported in Examples 2 and 3 are Scn1atm1Kea 50% C57BL/6J, 50% 129S6/SvEvTac background strain mice generated as described in Miller, A. R. et al. [Genes Brain Behav. 2014 February; 13(2): 163-172]. Briefly, a heterozygous Scn1a+/− null allele was generated by targeted deletion of the first coding exon in TL1 ES cells (12956/SvEvTac). These mice were established and maintained as a co-isogenic strain on the 12956/SvEvTac (129) background. […] P ranges, stated as, e.g. P35-P37, indicate the days postnatal of the study animals Normal axonodendritic, axonosomatic and axonoaxonic synaptic pruning occurs in all mice and peaks at postnatal P21. Postnatal ages for the study animals were chosen to avoid periods of high natural demyelination and microglial activity.
(§3) In Heterozygous Animals, drug or saline sham treatment began at age P7 (i.e., 7 days after birth) with subcutaneous administration of drug or saline injected via insulin syringes.
(§4) At day 7 all pups in each litter were administered an injection volume of 10 μl/g body weight once per day containing: 1) fenfluramine at 15 mg/kg; 2) diazepam at 10 mg/kg; or 3) vehicle (0.9% saline solution), each injection volume based on body weight.
(§5) The administration of each intervention continued every day until age P35-P37, at which time animals were sacrificed to obtain blood and brain tissues which amounted to an aggregate of 28 to 30 days of once daily dosing.
Mice at the end of the dosing period were isoflurane anaesthetized and blood was drawn through cardiac ventricular puncture without perforating the heart or vessels for subsequent perfusion fixation. Blood was processed for plasma and stored at −80C. After creating an incision in the hepatic circulation to allow perfusates an exit point, mice were flushed of remaining blood with 6 mL ice cold phosphate buffered saline through the left ventricle of the heart. Mice were then perfusion fixed with an additional 6 mL of ice cold 4% paraformaldehyde before carefully harvesting right brains into 10% neutral buffered formalin for 24 hours before transferring into phosphate buffered saline with 0.02% sodium azide as an antimicrobial preservative. Right brains were then embedded to paraffin blocks and processed as formalin fixed, paraffin embedded (FFPE) 5 μm thick sagittal sections on glass slides. These FFPE tissues were immunostained, processed, and imaged for degraded myelin and inflammatory microglia.
DMBP antibody (“degraded” Myelin Basic Protein, Anti-Myelin Basic Protein, Millipore Sigma antibody, formerly Sigma AB5864) was applied at 1:1000 dilution with no antigen retrieval. This antibody preferentially detects debris of myelin degradation in human samples without cross reacting to normal myelin. Vector ImPRESS-AP alkaline phosphatase conjugated anti-rabbit IgG (Vector Laboratories) was applied in the secondary detection step with Vector Blue AP substrate as the chromogen. Nuclear Fast Red was applied as a non-specific tissue counterstain before dehydration, clearing, and coverslip mounting steps. Vector Blue signals within finished slides were visualized with the DAPI (UV) excitation/emission channel on an Echo Revolve fluorescence microscope under the 20× objective. Non-specific Nuclear Fast Red staining was visualized under the Texas Red excitation/emission channel to provide anatomical contexts to the overlaid DMBP signals.

[4] = system: SCN1a+/− (Dravet) mice; assay: CD11b+ activated microglia immunostaining score in brain sections, murine model of Dravet syndrome; format: in vivo, mouse; settings: for CD11b Avg Score, Genu / CD11b Avg Score, PP / CD11b Avg Score, PP + Genu: Het mice, s.c. once daily P7 to P35-P37, FFA 15 mg/kg, diazepam 10 mg/kg; for CD11b Avg Score, Genu: genu of corpus callosum; for CD11b Avg Score, Genu / CD11b Avg Score, PP: scale 0-5; for CD11b Avg Score, PP: perforant pathway of hippocampus; for CD11b Avg Score, PP + Genu: sum of perforant pathway and genu, maximum 10, p = 0.05 Het FFA vs Het vehicle; for effect on CD11b+ activated microglia vs vehicle (saline): genu and perforant pathway of P35-P37 SCN1a+/− mice, 2-tail unequal variance t-test, FIG. 4
Excerpt: as §2, §3, §4, §5
Vector ImPRESS-AP alkaline phosphatase conjugated anti-rabbit IgG (Vector Laboratories) was applied in the secondary detection step with Vector Blue AP substrate as the chromogen. Nuclear Fast Red was applied as a non-specific tissue counterstain before dehydration, clearing, and coverslip mounting steps. Vector Blue signals within finished slides were visualized with the DAPI (UV) excitation/emission channel on an Echo Revolve fluorescence microscope under the 20× objective. Non-specific Nuclear Fast Red staining was visualized under the Texas Red excitation/emission channel to provide anatomical contexts to the overlaid CD11b signals. Perfusion fixed sagittal 5 um FFPE brain sections within approximately 300 um from the midline of the right brains of the P35-P37 wildtype and SCN1A heterozygous 50% B6/50% 129S6 mice from the Fintepla/Diazepam/Saline comparator study were examined for CD11b+ microglia.
A 0-5 ascending pathologist scale was applied in scoring CD11b+ microglia in the perforant pathway of the hippocampus following the hippocampal fissure and murine white matter in the front knob, “genu,” of the corpus callosum (CC). The CC is an elongated midline structure composed of 200-800 million horizontal interconnecting cortical areas. The mature CC contains both myelinated and unmyelinated fibers as well as glial cells (astrocytes and oligodendrocytes), and neurons. The human CC has been divided into five anatomical regions, which include from front to back, the rostrum, the genu, the body or trunk-often subdivided into anterior, middle and posterior body-the isthmus, and the splenium. Most neurons in the callosal fibers release excitatory amino acids (glutamate or aspartate), however a small proportion of GABAergic neurons have been identified in mammals
The scores of the genu and perforant pathway were summed for each animal for a maximum possible score of 10. This antibody preferentially detects activated microglia over surveilling, quiescent microglia across human, rat, and mouse species. Normal, healthy mice have more basal microglial activation in the CNS compared to the normal human CNS.

[5] = system: SCN1a+/− (het) mice; assay: Kaplan Meier estimation of survival in SCN1a+/− (het) mice; format: in vivo, mouse; settings: P1-P40 SCN1a+/− (het) mice, compared to both placebo and diazepam treatment; FIG. 6
Excerpt: as §2

T2 sequence (Q99720 whole entry): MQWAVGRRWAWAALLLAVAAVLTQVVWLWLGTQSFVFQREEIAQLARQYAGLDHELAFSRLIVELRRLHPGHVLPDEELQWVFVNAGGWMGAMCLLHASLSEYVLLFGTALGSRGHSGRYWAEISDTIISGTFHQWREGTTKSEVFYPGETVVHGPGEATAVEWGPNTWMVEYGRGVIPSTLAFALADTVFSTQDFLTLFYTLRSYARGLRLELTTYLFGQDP

Structure (SMILES) | binding interaction with RNF43 [1] | binding interaction with sigma-1 [2] | DMBP Avg Score, Ctx [3] | DMBP Avg Score, Hipp [3] | DMBP Avg Score, Hipp + Ctx [3] | effect on myelin debris (D-MBP) score vs vehicle (saline) [3] | CD11b Avg Score, Genu [4] | CD11b Avg Score, PP [4] | CD11b Avg Score, PP + Genu [4] | effect on CD11b+ activated microglia vs vehicle (saline) [4] | probability of survival over time [5]
CCNC(C)Cc1cccc(C(F)(F)F)c1 (racemic) [FFA, (RS)-N-ethyl-1-[3-(trifluoromethyl)phenyl]propan-2-amine] | interactions were identified in the primary screen | interactions were identified in the primary screen | 2.54 | 2.62 | 5.15 | significantly reduced the myelin debris (D-MBP) score | 2.54 | 2.77 | 5.31 | reduced activated microglia | increases the probability of survival
CN1C(=O)CN=C(c2ccccc2)c2cc(Cl)ccc21 [Diazepam, diazepam] |  |  | 2.44 | 3.22 | 5.67 | not significant | 3.00 | 3.67 | 6.67 | not significant | 

Source: patent publication US20230078820A1, “FE[…] TREATMENT OF DEMYELINATING DISEASES AND CONDITIONS” (ZOGENIX INTERNATIONAL LIMITED, priority 2021, published 2023)
